In US20250354049A1, “CORROSION-INHIBITING AGENTS FOR REDUCING DISSOLVED OXYGEN CONCENTRATIONS WITHIN UPSTREAM OILFIELD SYSTEMS” (Finoric LLC, priority 2024, published 2025):
Values after ≈ are worked out from the molar mass of the structure shown. “Also recorded” adds a separate entry of the source. Where two headings read alike, the source gives them in different places.

Tests used:
[1] = cited from earlier work
[2] = solvents named; cited from earlier work
[3] = cited from earlier work; remark: listed apart in the source
[4] = Example 1: oxygen scavenging in deionized water, impact of temperature and activator; conditions: for dissolved oxygen scavenged: absence of catalyst, after 6 h, pH ~6.4, deionized water; for dissolved oxygen scavenged / time until all detectable dissolved oxygen was scavenged: 200 ppm; for time until all detectable dissolved oxygen was scavenged: with activator CuSO4·5H2O 10 ppm, pH ~6.4
Procedure: To prepare the experiment, 500 mL of deionized water (saturated with dissolved oxygen) was placed in a 3-neck round bottom flask, and a calibrated dissolved oxygen probe was inserted into the center neck. FIG. 5 provides picture 500 of the experiment setup. The water was stirred magnetically, and the pH and temperature were adjusted to the indicated values. Temperature was controlled by heating in a water bath, and pH was adjusted to ˜6.4 with dilute hydrogen chloride (HCl). […] The corrosion-inhibiting agent and activator (if used) were injected via micropipette through one of the side necks in the flask. […] The flask was then sealed and dissolved oxygen was monitored continuously as a function of time.

[5] = Example 6: oxygen scavenging in deionized water with and without P110 steel coupon
Procedure: For a first test, no steel coupon was present but for a second test, a P110 steel coupon was suspended in the water. The dissolved oxygen was measured as a function of time at room temperature (˜ 70° F.) for both tests. FIG. 10 provides a picture 1000 of the second test in which the steel coupon was submerged in the deionized water within the glass vessel.
At the 180 min mark, the temperature was increased from 70° F. to 100° F. in both tests.

[6] = second test, P110 steel coupon present, 200 ppm, ~70° F.

Structure (SMILES) | ~pKa [1] | Solubility in Other Solvents [2] | Solubility in Water (in words) [3] | other results
N.O=S(O)O [Ammonium bisulfite] | 7 | – | – | –
O=S([O-])[O-].[Na+].[Na+] [Sodium Sulfite] | ~9 | – | – | ~pKa ([1]; listed as sodium sulfite): ~9
O=S([O-])([O-])=S.[Na+].[Na+] [Sodium Thiosulfate] | 1.74 | – | – | –
CCC(C)=NO [Methylethylketoxime (MEKO), Methylethylketoxime] | – | Ethanol | Miscible | –
NN [Hydrazine] | 8-9 | Ethanol,; also recorded: methanol | Miscible | –
Oc1ccc(O)cc1 [Hydroquinone (HQ), Hydroquinone] | 9.9 | Ethanol,; also recorded: acetone | – | Solubility in Water [3]: 59 mg/mL (≈ 536 mM)
O=C1O[C@H]([C@@H](O)CO)C(O)=C1O [Ascorbic Acid] | – | – | – | reaction with dissolved oxygen (in words) ([4]; absence of activator, FIG. 6 solid lines): relatively sluggish; dissolved oxygen scavenged ([4]; 100° F.): approximately 35%; dissolved oxygen scavenged ([4]; 135° F.): ~93%; reaction rate with dissolved oxygen (in words) ([4]; copper catalyst (CuSO4·5H2O) added, FIG. 6 dashed lines): significant increase in reaction rate; time until all detectable dissolved oxygen was scavenged ([4]; 100° F.): ≤ 2 min; time until all detectable dissolved oxygen was scavenged ([4]; ambient temperature (72° F.)): ≤ 15 min; dissolved oxygen left behind ([5]; after temperature increased from 70° F. to 100° F. at the 180 min mark): ~0.37 ppm; dissolved oxygen after bolus of copper catalyst ([5]; copper catalyst (10 ppm) injected at the 235 min mark, 100° F.): non-detectable levels; dissolved oxygen concentration after 4 h ([5]; first test without coupon, 200 ppm, dropped from 9.05 ppm, room temperature (~70° F.)): 5.23 ppm; reaction with dissolved oxygen (in words) ([5]; first test without coupon, 200 ppm, ~70° F.): only a slow reaction was observed; rate of reaction with dissolved oxygen (in words) [5, 6]: increased significantly; time after which the scavenging reaction stalled [5, 6]: 180 min
O=S([O-])S(=O)(=O)[O-].[Na+].[Na+] [Sodium Metabisulfite, reference compound] | ~1.8 | Glycerol,; also recorded: ethanol | – | Solubility in Water [3]: 653 mg/mL
O=S([O-])O.[Na+] [Sodium Bisulfite] | ~7 | – | – | ~pKa ([1]; listed as sodium bisulfite): ~7
CCN(O)CC [Diethylhydroxylamine (DEHA), diethylhydroxylamine] | 5.7 | – | Miscible | –
NNC(=O)NN [Carbohydrazide] | 11.81 | ethanol | Very | –
